According to patent publication US9499535B2, “Kinase inhibitors” (ORIGENIS GMBH, priority 2011, dated 2016):

Molecular target: T1, SYK kinase (Homo sapiens, UniProt P43405)
T1 construct: purchased Invitrogen, Carlsbad
Assay: SYK assay (OMNIA Kinase Assay, Invitrogen)
Assay type: biochemical
Details: apparent Ki calculated from the IC50 using the Cheng-Prusoff equation; 1 mM ATP, 10 μM Peptide Substrate; read-out: SYK Activities: Ki
Method: In the assay OMNIA® KINASE ASSAY by Invitrogen Corporation (Carlsbad) the effect of invention of a compound on the phosphorylation is determined by measurement of fluorescence intensity of a chelation-enhanced fluorophore called SOX. Upon phosphorylation of the peptide by the kinase of interest, Mg2+ is chelated to form a bridge between the SOX moiety and the phosphate group that is transferred to the specific tyrosine on the peptide. The fluorescence intensity is directly proportional to the amount of peptide phosphorylation.
To the wells of an 384 well small volume plate (Greiner, Frickenhausen) are added (i) the compound under test in 5% DMSO/distilled water (2 μl), (ii) 16 μl of the master mix containing ATP, DTT, Kinase Reaction Buffer, Omina Peptide Substrate Tyr 7 resulting in a final concentration of 1 mM ATP, 0.2 mM DTT and 10 μM Peptide Substrate.
The Master Mix and the assay plate was incubated to reaction temperature before the measurement (30° C.). The reaction was started with addition of (iii) 2 μl 4 μg/ml SYK kinase (Invitrogen, Carlsbad). During measurement fluorescence intensitiy readings were collected using a TECAN M1000 at a wavelength of λex 360/λem 485 nm every 30 s for 30 minutes. The reaction velocity was plotted versus the inhibitor concentration to determine the IC50 using XLFit 5.0 (IDBS, Guildford) to fit to a sigmoidal dose response curve, and the apparent Ki values were calculated from the IC50 using the Cheng-Prusoff equation (Cheng, Y.; Prusoff, W. H. Biochem. Pharmacol. 22, 3099-3108, 1973).

Row | Compound | Ki [nM]
1 | CN1CCN(c2ccc(Nc3nc4ccccc4c4c(C(F)(F)F)[nH]nc34)cc2)CC1 [Example #211, [4-(4-Methyl-piperazin-1-yl)-phenyl]-(1-trifluoromethyl-2H-pyrazolo[3,4-c]quinolin-4-yl)-amine] | 100 to 1000
2 | COc1ccc2nc(Nc3ccc(-c4ccc(C(=O)O)cc4)cc3)c3n[nH]cc3c2c1 [Example #288, 4′-((8-methoxy-2H-pyrazolo[3,4-c]quinolin-4-yl)amino)-[1,1′-biphenyl]-4-carboxylic acid] | 100 to 1000
3 | COc1ccc2nc(Nc3nc(C)cs3)c3n[nH]cc3c2c1 [Example #157, (8-Methoxy-2H-pyrazolo[3,4-c]quinolin-4-yl)-(4-methyl-thiazol-2-yl)-amine] | 100 to 1000
4 | COc1ccc(Nc2nc3ccccc3c3c([N+](=O)[O-])[nH]nc23)cc1OC [Example #213, (3,4-Dimethoxy-phenyl)-(1-nitro-2H-pyrazolo[3,4-c]quinolin-4-yl)-amine] | 100 to 1000
5 | c1ccc2c(c1)nc(Nc1ccc3[nH]ncc3c1)c1n[nH]cc12 [Example #4, (1H-Indazol-5-yl)-(2H-pyrazolo[3,4-c]quinolin-4-yl)-amine] | 100 to 1000
6 | COc1ccc2nc(Nc3ccc4c(c3)COCO4)c3n[nH]cc3c2c1 [Example #146, (4H-Benzo[1,3]dioxin-6-yl)-(8-methoxy-2H-pyrazolo[3,4-c]quinolin-4-yl)-amine] | 100 to 1000
7 | Cc1cc(Nc2nc3ccccc3c3c[nH]nc23)cc2cn[nH]c12 [Example #8, (7-Methyl-1H-indazol-5-yl)-(2H-pyrazolo[3,4-c]quinolin-4-yl)-amine] | 100 to 1000
8 | COc1cc2nc(Nc3ccc(NC(=O)Nc4cccc(C)c4)cc3)c3n[nH]cc3c2cc1OC [Example #299, 1-(4-((7,8-dimethoxy-2H-pyrazolo[3,4-c]quinolin-4-yl)amino)phenyl)-3-(m-tolyl)urea] | 100 to 1000
9 | COc1ccc2nc(Nc3ccc(N4CCCC4)cc3)c3n[nH]cc3c2c1 [Example #79, (8-Methoxy-2H-pyrazolo[3,4-c]quinolin-4-yl)-(4-pyrrolidin-1-yl-phenyl)-amine] | 100 to 1000
10 | Cc1nsc2nc(Nc3ccc(N4CCN(C)CC4)cc3)c3n[nH]cc3c12 [Example #220, [4-(4-Methyl-piperazin-1-yl)-phenyl]-(1-methyl-7H-3-thia-2,4,6,7-tetraaza-as-indacen-5-yl)-amine] | 100 to 1000
11 | CN1CCCN(c2ccc(Nc3nc4ccccc4c4c[nH]nc34)cc2)CC1 [Example #27, [4-(4-Methyl-[1,4]diazepan-1-yl)-phenyl]-(2H-pyrazolo[3,4-c]quinolin-4-yl)-amine] | 100 to 1000
12 | COc1ccc2nc(Nc3ccc4[nH]ccc4c3)c3[nH]ncc3c2c1 [Example #72, (1H-Indol-5-yl)-(8-methoxy-3H-pyrazolo[3,4-c]quinolin-4-yl)-amine] | 100 to 1000
13 | COc1ccc(Nc2nc3snc(C)c3c3c[nH]nc23)cc1OC [Example #218, (3,4-Dimethoxy-phenyl)-(1-methyl-7H-3-thia-2,4,6,7-tetraaza-as-indacen-5-yl)-amine] | 100 to 1000
14 | COc1ccc2nc(Nc3ccc(C(=O)N4CCCC4)cc3)c3n[nH]cc3c2c1 [Example #231, [4-(8-Methoxy-2H-pyrazolo[3,4-c]quinolin-4-ylamino)-phenyl]-pyrrolidin-1-yl-methanone] | 100 to 1000
15 | Cn1ncc2ccc(Nc3nc4ccc(Br)cc4c4c[nH]nc34)cc21 [Example #35, (8-Bromo-2H-pyrazolo[3,4-c]quinolin-4-yl)-(1-methyl-1H-indazol-6-yl)-amine] | 100 to 1000
16 | COc1ccc2nc(Nc3nnc(C4CC4)[nH]3)c3n[nH]cc3c2c1 [Example #141, (5-Cyclopropyl-4H-[1,2,4]triazol-3-yl)-(8-methoxy-2H-pyrazolo[3,4-c]quinolin-4-yl)-amine] | 100 to 1000
17 | COc1ccc2nc(Nc3cccc(N(C)C)c3)c3n[nH]cc3c2c1 [Example #76, N-(8-Methoxy-2H-pyrazolo[3,4-c]quinolin-4-yl)-N′,N′-dimethyl-benzene-1,3-diamine] | 100 to 1000
18 | COc1ccc2nc(Nc3ccc(-n4nccn4)cc3)c3n[nH]cc3c2c1 [Example #345, N-(4-(2H-1,2,3-triazol-2-yl)phenyl)-8-methoxy-2H-pyrazolo[3,4-c]quinolin-4-amine] | 100 to 1000
19 | COc1ccc2nc(Nc3cc(C)ccn3)c3n[nH]cc3c2c1 [Example #154, (8-Methoxy-2H-pyrazolo[3,4-c]quinolin-4-yl)-(4-methyl-pyridin-2-yl)-amine] | 100 to 1000
20 | Brc1ccc2nc(Nc3ccc(N4CCCCC4)cc3)c3n[nH]cc3c2c1 [Example #83, (8-Bromo-2H-pyrazolo[3,4-c]quinolin-4-yl)-(4-piperidin-1-yl-phenyl)-amine] | 100 to 1000
21 | CN1CCN(c2ccc(Nc3nc4ccccc4c4c([N+](=O)[O-])[nH]nc34)cc2)CC1 [Example #214, [4-(4-Methyl-piperazin-1-yl)-phenyl]-(1-nitro-2H-pyrazolo[3,4-c]quinolin-4-yl)-amine] | 100 to 1000
22 | c1ccc(Nc2nc3ccccc3c3c[nH]nc23)cc1 [Example #5, Phenyl-(2H-pyrazolo[3,4-c]quinolin-4-yl)-amine] | 100 to 1000
23 | c1cncc(Nc2nc3ccccc3c3cn[nH]c23)c1 [Example #23, (3H-Pyrazolo[3,4-c]quinolin-4-yl)-pyridin-3-yl-amine] | 100 to 1000
24 | COc1cccc2c1nc(Nc1ccc3c(c1)OCO3)c1n[nH]cc12 [Example #249, Benzo[1,3]dioxol-5-yl-(6-methoxy-2H-pyrazolo[3,4-c]quinolin-4-yl)-amine] | 100 to 1000

Continued, values first:

Row | Ki [nM] | Compound
25 | 100 to 1000 | COc1ccc2nc(Nc3ccc4c(O)ncnc4c3)c3[nH]ncc3c2c1 [Example #110, 7-(8-Methoxy-3H-pyrazolo[3,4-c]quinolin-4-ylamino)-quinazolin-4-ol]
26 | 100 to 1000 | CN1CCN(c2ccc(Nc3nc4ccccc4c4c[nH]nc34)cc2)CC1 [Example #26, [4-(4-Methyl-piperazin-1-yl)-phenyl]-(2H-pyrazolo[3,4-c]quinolin-4-yl)-amine]
27 | 10 to 100 | COc1ccc2nc(Nc3ccc4c(c3)NC(=O)CN4)c3n[nH]cc3c2c1 [Example #182, 7-(8-Methoxy-2H-pyrazolo[3,4-c]quinolin-4-ylamino)-3,4-dihydro-1H-quinoxalin-2-one]
28 | 100 to 1000 | Cc1[nH]nc2c(Nc3ccc4cn[nH]c4c3)nc3cc(C#N)ccc3c12 [Example #227, 4-(1H-Indazol-6-ylamino)-1-methyl-2H-pyrazolo[3,4-c]quinoline-7-carbonitrile]
29 | 10 to 100 | COc1ccc2nc(Nc3ccc(N(C)C)c(C)c3)c3n[nH]cc3c2c1 [Example #178, N4-(8-Methoxy-2H-pyrazolo[3,4-c]quinolin-4-yl)-2,N1,N1-trimethyl-benzene-1,4-diamine]
30 | < 10 | N#Cc1ccc2nc(Nc3ccc(N4CCOCC4)cc3)c3n[nH]cc3c2c1 [Example #217, 4-(4-Morpholin-4-yl-phenylamino)-2H-pyrazolo[3,4-c]quinoline-8-carbonitrile]
31 | 10 to 100 | COc1ccc(Nc2nc3cc(F)ccc3c3cn[nH]c23)cc1OC [Example #336, N-(3,4-dimethoxyphenyl)-7-fluoro-3H-pyrazolo[3,4-c]quinolin-4-amine]
32 | 10 to 100 | COc1ccc2c(c1)nc(Nc1ccc(N3CCN(C)CC3)cc1)c1n[nH]cc12 [Example #176, (7-Methoxy-2H-pyrazolo[3,4-c]quinolin-4-yl)-[4-(4-methyl-piperazin-1-yl)-phenyl]-amine]
33 | 10 to 100 | COc1ccc2nc(Nc3ccc(F)c(F)c3)c3n[nH]cc3c2c1 [Example #311, N-(3,4-difluorophenyl)-8-methoxy-2H-pyrazolo[3,4-c]quinolin-4-amine]
34 | 10 to 100 | COc1ccc2nc(Nc3ccc(NC(=O)Nc4cccc(C)c4)cc3)c3n[nH]cc3c2c1 [Example #289, 1-(4-((8-methoxy-2H-pyrazolo[3,4-c]quinolin-4-yl)amino)phenyl)-3-(m-tolyl)urea]
35 | < 10 | N#Cc1ccc2nc(Nc3ccc4cn[nH]c4c3)c3n[nH]cc3c2c1 [Example #197, 4-(1H-Indazol-6-ylamino)-2H-pyrazolo[3,4-c]quinoline-8-carbonitrile]
36 | 10 to 100 | COc1cccc(Nc2nc3ccc(OC)cc3c3c[nH]nc23)c1 [Example #60, (3-Methoxy-phenyl)-(8-methoxy-2H-pyrazolo[3,4-c]quinolin-4-yl)-amine]
37 | 10 to 100 | O=C1COc2ccc(Nc3nc4cc(F)ccc4c4cn[nH]c34)cc2N1 [Example #334, 6-((7-fluoro-3H-pyrazolo[3,4-c]quinolin-4-yl)amino)-2H-benzo[b][1,4]oxazin-3(4H)-one]
38 | 10 to 100 | Fc1ccc2c(c1)nc(Nc1ccc(N3CCOCC3)cc1)c1[nH]ncc12 [Example #335, 7-fluoro-N-(4-morpholinophenyl)-3H-pyrazolo[3,4-c]quinolin-4-amine]
39 | 10 to 100 | COc1ccc2c(c1)nc(Nc1ccc3c(c1)OCO3)c1n[nH]cc12 [Example #267, Benzo[1,3]dioxol-5-yl-(7-methoxy-2H-pyrazolo[3,4-c]quinolin-4-yl)-amine]
40 | 10 to 100 | c1cc2c(cn1)nc(Nc1ccc3cn[nH]c3c1)c1n[nH]cc12 [Example #91, (1H-Indazol-6-yl)-(2H-2,3,5,7-tetraaza-cyclopenta[a]naphthalen-4-yl)-amine]
